Key:
Assay type in all cases: in vivo
[1] = test system: skin, volar forearm test sites; assay: Comparative irritation panel study vs glycerine based emollient, TEWL by POST protocol (Example 3); conditions: FIG. 8; 10 gsm polypropylene nonwoven; 0.6% Cirrasol Care + 12% additive; 24 hours under occlusion patch; 16 panellists
Source text: 10 gsm polypropylene nonwoven textile was cut into 11 mm diameter circles. Each circle was individually treated with water based dispersions then dried to achieve a treat rate of a) 0.6% low-irritation hygiene finish (CirrasolTM Care ex. Croda, Sample A), or b) 0.6% low irritation hygiene finish and 12% […]-10 adipate (a diester skin care additive in accordance with the present invention, Sample B), or c) 0.6% low-irritation hygiene finish and 12% of a glycerine based emollient (Sample C). Treat rates are expressed as percentage by weight of textile. An irritation panel study was carried out, the study included 16 individual panellists. […] For each panellist three test sites on each volar forearm were identified and marked (i.e. 6 test sites in total per panellist were assessed). An initial trans-epidermal water loss (TEWL) reading was taken using an AquaFlux AF200 Instrument to ensure no initial skin irritation at each of the 6 test sites. […] TEWL was measured using the POST (post occlusion stress test) protocol. Under this test the occlusion patch is removed, along with the textile sample, the test site is then wiped of any surface moisture, and then TEWL readings are taken immediately using the same AquaFlux AF200 Instrument. TEWL is measured until the water loss rate peaks, and for the following 5 minutes. Results are measured in total water loss for 5 minutes after water loss rate peaks. […]

[2] = test system: skin, volar forearm test sites; assay: Comparative irritation panel study vs ester based emollient, TEWL by POST protocol (Example 4); conditions: FIG. 9; 10 gsm polypropylene nonwoven; 0.6% Cirrasol Care + 12% additive; 24 hours under occlusion patch; 16 panellists
Source text: 10 gsm polypropylene nonwoven textile was cut into 11 mm diameter circles. Each circle was individually treated with water based dispersions then dried to achieve a treat rate of a) 0.6% low-irritation hygiene finish (Cirrasol™ Care ex. Croda, Sample A) based on weight of textile, or b) 0.6% low-irritation hygiene finish and 12% di-PPG-2 myreth-10 adipate (a diester skin care additive in accordance with the present invention, Sample B), or c) 0.6% low-irritation hygiene finish and 12% of a saturated tri-ester based emollient (Crodamol™ GTCC ex. Croda, Sample C). Treat rates are expressed as percentage by weight of textile. […]
(§1) For each panellist three test sites on each volar forearm were identified and marked (i.e. 6 test sites in total per panellist were assessed). An initial trans-epidermal water loss (TEWL) reading was taken using an AquaFlux AF200 Instrument to ensure no initial skin irritation at each of the 6 test sites. […]
(§2) After 24 hours panellists were again acclimatised to the laboratory environment for 20 mins at 20° C. and 45% relative humidity. TEWL was measured using the POST (post occlusion stress test) protocol. Under this test the occlusion patch is removed, along with the textile sample, the test site is then wiped of any surface moisture, and then TEWL readings are taken immediately using the same AquaFlux AF200 Instrument. […]

[3] = test system: skin, volar forearm test sites; assay: Irritation panel study, TEWL by POST (post occlusion stress test) protocol, SLS irritant model (Example 1); conditions: FIG. 1; 10 gsm polypropylene nonwoven with 1% SLS + 2% diester vs 1% SLS alone (Sample A); 24 hours under occlusion patch; 9 panellists
Source text: 10 gsm polypropylene nonwoven textile was cut into 11 mm diameter circles. Each circle was individually treated with water based dispersions then dried to achieve either a treat rate of a) 1% sodium lauryl sulphate (SLS, Sample A) based on weight of textile, or b) 1% SLS and 2% di-PPG-2 myreth-10 adipate (a diester skin care additive in accordance with the present invention, Sample B) based on percentage by weight of textile. SLS is a known skin irritant, and so provides a good model for assessing skin irritancy in test subjects/panellists.
An irritation panel study was carried out, the study included 9 individual panellists. […]
as §1, §2

Substance: di-PPG-2 myreth-10 adipate [diester skin care additive]
- skin irritation from nonwoven in contact with skin (combined average TEWL) compared to low-irritancy hygiene finish alone [1]: reduced skin irritation
- skin irritation from nonwoven in contact with skin (combined average TEWL) compared to low-irritancy hygiene finish alone [2]: reduced skin irritation
- decrease in skin water loss (combined average TEWL of all panellists) [3]: 31%
